The text below walks through data of article PMC4188013, “Insights into the binding of PARP inhibitors to the catalytic domain of human tankyrase-2” (Acta Crystallographica Section D: Biological Crystallography, 2014).

Read-outs that look alike come from different tables or passages of the source. A value given as a limit tells only on which side of the number the result lay.

One assay relates to PARP1. More on the design: method as in not given. As to conditions: cited from earlier work.
A further assay deals with PARP2. More on the design: method as in not given. Conditions: IC50 values available from the literature; ref not given; cited from earlier work.
The next assay has as its system TNKS1. More on the design: method as in not given. Conditions: IC50 values available from the literature; ref not given; cited from earlier work.
For a further assay, the system named is TNKS2. More on the design: method as in not given. As to conditions: IC50 values available from the literature; ref not given; cited from earlier work.
A further assay concerns the target T1, PARP domain of TNKS2 (Homo sapiens, UniProt Q9H2K2).
T1 construct: His6; made in house; host or cells: Escherichia coli BL-21(DE3) RIPL
The assay can be described thus: In vitro PARP assay, IC50 on TNKS2 (this study). It is filed as biochemical. As to conditions: values from this study. Here is the method:
Purified PARP domain of TNKS2 and either BSA or recombinant full-length 3BP2 protein were incubated in PARP reaction buffer (50 mM Tris pH 8.0, 4 mM MgCl2, 0.2 mM dithiothreitol) containing 0.5 mM NAD^+ as an exogenous source of ADP-ribose for 30 min at 25°C with or without PARP inhibitors. Reactions were stopped by adding sample buffer to the tubes. Samples were boiled and separated on a 4–20% SDS–PAGE gel. The gel was stained with Coomassie Blue, dried on a gel dryer and used for autoradiography analysis (Fig. 2 ▶).

Setting [1] is: IC50 values available from the literature, ref not given.

Regarding `C[C@]1(c2nc3c(C(N)=O)cccc3[nH]2)CCCN1` [ABT-888, 2-[(R)-2-Methylpyrolidin-2-yl]-1H-benzimidazole-4-carboxamide], the IC50 in the assay on PARP1 was […]; with PARP2 it was […]; with TNKS1, […]; in the assay with TNKS2 it was […].

T1 sequence (Q9H2K2 959-1164): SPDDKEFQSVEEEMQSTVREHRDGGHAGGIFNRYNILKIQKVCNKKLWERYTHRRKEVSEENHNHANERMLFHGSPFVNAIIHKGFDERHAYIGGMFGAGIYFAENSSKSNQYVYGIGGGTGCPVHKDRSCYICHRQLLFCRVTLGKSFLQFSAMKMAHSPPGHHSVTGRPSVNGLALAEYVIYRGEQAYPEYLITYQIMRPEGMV

`NC(=O)c1cccc(N)c1` [3-AB, 3-Amino-benzamide]: the 50% inhibitory concentration (IC50) against PARP domain of TNKS2 is over 30000 nM; with PARP1 (setting [1]), 33000 nM.

Turning to `Nc1ccc2oc(=O)ccc2c1I` [INH2BP, 5-Iodo-6-amino-1,2-benzopyrone], the results for the half-maximal inhibitory concentration (IC50) in the assay on PARP1 (setting [1]) and in the assay on PARP2 were 5070 nM and 4750 nM, respectively.

With `O=C1NCCc2c(OCCCCN3CCCCC3)cccc21` [DPQ], the figures for the half-inhibitory concentration (IC50) against PARP domain of TNKS2, with PARP1 and in the assay on TNKS1 were 2800 nM, 23 nM and 33 nM, respectively.

As for `Cc1nc2c(c(=O)[nH]1)CSCC2` [DR-2313, 2-Methyl-3,5,7,8-tetrahydro-4H-thiopyrano[4,3-d]pyrimidin-4-one], the IC50 against PARP domain of TNKS2 is 3000 nM; with PARP2 it was 240 nM.

`NC(=O)c1cccc2ncc(-c3ccc(Cl)cc3)nc12` [3,4-CPQ-5C, 3-(4-Chlorophenyl)-quinoxaline-5-carboxamide] showed a half-inhibitory concentration (IC50) against PARP domain of TNKS2 of 3600 nM.

Turning to `Nc1cccc2c(=O)[nH]ccc12` [5-AIQ, 5-Aminoisoquinolinone], the IC50 on PARP domain of TNKS2 was 10000 nM; in the assay with PARP1, 250 nM.

Molecule `NC(=O)c1ccc(I)c([N+](=O)[O-])c1` [BSI-201, 4-Iodo-3-nitrobenzamide] showed an IC50 on PARP domain of TNKS2 of 416 nM.

The molecule `Oc1cccc2c(O)nccc12` [1,5-IQD, 1,5-Isoquinolinediol] gave a concentration for half-maximal inhibition (IC50) at PARP domain of TNKS2 of 1500 nM.

Regarding `Cc1nc2c(O)cccc2c(=O)[nH]1` [NU-1025, 8-Hydroxy-2-methyl-3-hydro-quinazolin-4-one], the IC50 in the assay with PARP1 (setting [1]) is 400 nM.

By IC50 is commonly meant the point on the concentration scale where inhibition reaches its midpoint.
